US20190307729A1, “ANTIMICROBIAL COMPOUNDS AND METHODS FOR USE THEREOF” (VERSITECH LIMITED, priority 2016, published 2019)

Tested on: B. cepacia
Assay: Pigment formation (virulence suppression)
Assay type: cell-based, Burkholderia cepacia

Structure (SMILES): O=C(O)CN1C(=O)C(=Cc2ccc(OCc3ccc(Cl)cc3)cc2)SC1=S [Compound 82]
- pigment formation: repressing the pigment formation
